From article PMC6792352, “Limited Chemical Structural Diversity Found to Modulate Thyroid Hormone Receptor in the Tox21 Chemical Library” (Environmental Health Perspectives, 2019)
Structures can show the parent of a compound that is named as a salt.

Experiment: in vitro
Details: rat, gh3-tre-luc cells

SMILES	CC50 at 24 h (AC50 (uM) modified / 1000) [µM]	further results
COc1ccc2[nH]c([S+]([O-])Cc3ncc(C)c(OC)c3C)nc2n1 (stereo not drawn) [Tenatoprazole]	41.8	
CCCc1c(OCCCOc2ccc(OCC(=O)O)cc2)ccc(C(C)=O)c1O [4-[3-(4-Acetyl-3-hydroxy-2-propylphenoxy)propoxy]phenoxy-acetic acid]	> 90	
CN(c1nccc(=O)[nH]1)C1CCN(c2nc3ccccc3n2Cc2ccc(F)cc2)CC1 [Mizolastine]	> 50	
C=CC(=O)OCCOCCOCC [2-(2-Ethoxyethoxy)ethyl prop-2-enoate]	> 90	
CCCCOC(=O)CCCCCCCC(=O)OCCCC [Dibutyl nonanedioate]	> 90	
CC(Cl)C(C)Cl (stereo not drawn) [2,3-Dichlorobutane]		CC50 at 24 h (AC50 (uM) modified / 1000, Tox21_110001=Tox21_200667, viability, 1 nM T3 present, 24 h): > 90 µM
CC(C)c1ccccc1C(C)C [Diisopropylbenzene]	88.9	
N#Cc1ccc(C2CCCc3cncn32)cc1 (stereo not drawn) [Fadrozole hydrochloride]	> 40	
CCCOCCOCCOCCO [2-[2-(2-Propoxyethoxy)ethoxy]ethanol]	> 90	
O=C1[C@@H]2[C@H]3CC[C@H](C3)[C@@H]2C(=O)N1CCCCN1CCN(c2ncccn2)CC1 [Tandospirone]	> 50	
Nc1cccc(S(=O)(=O)O)c1 [3-Aminobenzenesulfonic acid]	> 90	
Cc1cc2c(C(C)C)c(O)c(O)c(C=O)c2c(O)c1-c1c(C)cc2c(C(C)C)c(O)c(O)c(C=O)c2c1O [Gossypol]	8.84	
CCCCOCCOCCO [2-(2-Butoxyethoxy)ethanol]	> 90	
C=CCc1ccc2c(c1)OCO2 [Safrole]		CC50 at 24 h (AC50 (uM) modified / 1000, Tox21_110001=Tox21_202439, viability, 1 nM T3 present, 24 h): > 90 µM
O=C(O)/C=C/C(=O)O [Fumaric acid]	> 100	
CC(C)C[P+](C)(CC(C)C)CC(C)C [Triisobutylmethylphosphonium tosylate]	> 90	
COP(=O)(OC)OC(Br)C(Cl)(Cl)Br (stereo not drawn) [Naled]		CC50 at 24 h (AC50 (uM) modified / 1000, Tox21_110001=Tox21_201641, viability, 1 nM T3 present, 24 h): 48.7 µM; CC50 at 24 h (AC50 (uM) modified / 1000, Tox21_110001=Tox21_300845, viability, 1 nM T3 present, 24 h): 49.1 µM
O=C(NC(=O)c1cc(F)c(F)cc1Cl)Nc1cc(F)ccc1N1CCC(C(=O)O)CC1 [AVE2865]		CC50 at 24 h (AC50 (uM) modified / 1000, Tox21_110001=Tox21_300253, viability, 1 nM T3 present, 24 h): > 50 µM
CCCCCCCC/C=C\CCCCCCCC(=O)NCc1ccc(O)c(OC)c1 [Olvanil]	8.65	
Nc1ccc2ccccc2c1 [2-Naphthylamine]		CC50 at 24 h (AC50 (uM) modified / 1000, Tox21_110001=Tox21_202091, viability, 1 nM T3 present, 24 h): > 90 µM
CNCC[C@@H](Oc1ccccc1C)c1ccccc1 [Atomoxetine hydrochloride]	44.9	
CC(C)CCCCCCOC(=O)c1ccccc1C(=O)OCCCCCCC(C)C [Diisononyl phthalate]	> 90	
CC(=O)C(Cl)Cl [1,1-Dichloropropanone]		CC50 at 24 h (AC50 (uM) modified / 1000, Tox21_110001=Tox21_201090, viability, 1 nM T3 present, 24 h): > 90 µM
N[C@@H](Cc1ccccc1)C(=O)O [Phenylalanine]	> 50	
COc1cccc(OC)c1 [1,3-Dimethoxybenzene]	> 90	
N#C/N=C1\SCCN1Cc1ccc(Cl)nc1 [Thiacloprid]	> 90	
O=C(O)COc1cc(Cl)c(Cl)cc1Cl [2,4,5-Trichlorophenoxyacetic acid]	> 90	

SMILES	CC50 at 24 h (AC50 (uM) modified / 1000) [µM]	further results
CNC(C)(C)Cc1ccccc1 [Mephentermine hemisulfate]		CC50 at 24 h (AC50 (uM) modified / 1000, Tox21_110001=Tox21_110501, viability, 1 nM T3 present, 24 h): > 20 µM
CCC(C)c1nccnc1OC (stereo not drawn) [2-sec-Butyl-3-methoxypyrazine]	> 90	
Oc1c(Br)cc(Br)c2cccnc12 [Broxyquinoline]	24.9	
COC(C)(C)CCO [3-Methoxy-3-methylbutan-1-ol]	> 90	
CCCC1C(CC)=CC(CC)=CN1c1ccccc1 (stereo not drawn) [3,5-Diethyl-1-phenyl-2-propyl-1,2-dihydropyridine]	> 90	
CCC(Br)(CC)C(=O)NC(N)=O [Carbromal]		CC50 at 24 h (AC50 (uM) modified / 1000, Tox21_110001=Tox21_302247, viability, 1 nM T3 present, 24 h): > 90 µM
CCOC(=O)[C@H](CCc1ccccc1)N[C@H]1CCc2ccccc2N(CC(=O)O)C1=O [Benazepril hydrochloride]	5.95	
Cc1ccc(N(CC2=NCCN2)c2cccc(O)c2)cc1 [Phentolamine]	45.1	
CC1(C)C(=O)N(Br)C(=O)N1Br [1,3-Dibromo-5,5-dimethylhydantoin]	> 90	
Cc1cc(OC(=O)N(C)C)nn1C(=O)N(C)C [Dimetilan]		CC50 at 24 h (AC50 (uM) modified / 1000, Tox21_110001=Tox21_301855, viability, 1 nM T3 present, 24 h): > 90 µM
Cn1c(=O)c2[nH]cnc2n(C)c1=O [Theophylline]	> 90	
C#CCOC(C(=O)OCCN(C)C)(c1ccccc1)c1ccccc1 [Pargeverine hydrochloride]	> 50	
CCCCC(CC)CN (stereo not drawn) [2-Ethylhexylamine]	> 90	
CCc1nn(C)c(C(=O)NCc2ccc(C(C)(C)C)cc2)c1Cl [Tebufenpyrad]	53.4	
COc1ccc2c3c1O[C@H]1C(=O)CC[C@H]4[C@@H](C2)N(C)CC[C@]314 [Hydrocodone phosphate (2:3) monohydrate]	> 50	
c1ccc(C[n+]2cccc3ccccc32)cc1 [1-Benzylquinolinium chloride]	> 90	
O=C1C(I)=CC(=C(c2cc(I)c(O)c(I)c2)c2ccccc2C(=O)O)C=C1I [Iodophthalein sodium]	41.3	
O=c1c2ccccc2nnn1CCl [3-(Chloromethyl)-1,2,3-benzotriazin-4(3H)-one]	> 90	
O=C(OCCOCCOCCOC(=O)c1ccccc1)c1ccccc1 [Triethylene glycol dibenzoate]	> 90	
Cc1ccccc1CCl [1-(Chloromethyl)-2-methylbenzene]	> 90	
CCC(C=O)CC [2-Ethylbutyraldehyde]	> 90	
Fc1ccccc1[C@@H](F)COC1CCC(Nc2ncnc3[nH]ncc23)CC1 (stereo partly drawn) [MK-968]	82.7	
CC[N+](CC)(CC)CCC(O)(c1ccccc1)C1CCCCC1 (stereo not drawn) [Tridihexethyl chloride]	> 20	
CN(C)CCCN1c2ccccc2Sc2ccccc21 [Promazine hydrochloride]	4.95	
CCC(C)SSC(C)CC (stereo not drawn) [Dibutan-2-yl disulfide]	> 90	
ON=C1CCCCC1 [Cyclohexanone oxime]	> 90	
Cc1cc(O)c(C(C)(C)C)cc1C(C)(C)C [4,6-Di-tert-butyl-m-cresol]	22.6	

SMILES	CC50 at 24 h (AC50 (uM) modified / 1000) [µM]	further results
CN1CCN(C(c2ccccc2)c2ccccc2)CC1 [Cyclizine hydrochloride]	> 20	
O=C(O)c1cc(=O)c2c(OCC(O)COc3cccc4oc(C(=O)O)cc(=O)c34)cccc2o1 [Cromolyn sodium]	> 50	
O=C(CN1CCNCC1)NC1CCCCC1 [Esaprazole]	> 50	
CC(C)(C)C1(CCc2ccc(Cl)cc2)CO1 (stereo not drawn) [2-(2-(4-Chlorophenyl)ethyl)-2-(1,1-dimethylethyl)oxirane]	> 90	
CC(C)NCC1CCc2cc(CO)c([N+](=O)[O-])cc2N1 (stereo not drawn) [Oxamniquine]	> 20	
CCC/C=C/CO [(E)-2-Hexen-1-ol]	> 90	
CCN(CC)C(=O)/C(C#N)=C/c1cc(O)c(O)c([N+](=O)[O-])c1 [Entacapone]	> 50	
CCOc1ccc2nc(N)sc2c1 [2-Amino-6-ethoxybenzothiazole]	> 90	
N#C[C@@H]1CC(F)(F)CN1C(=O)CNC1CC2CCC(C1)N2c1ncccn1 (stereo partly drawn) [SSR162369]	> 90	
O=C(O)c1cc(O)c2c(c1)C(=O)c1cccc(O)c1C2=O [Rhein]	> 90	
CC(=O)Oc1ccccc1C(=O)O [Aspirin]	> 90	
Cc1cccc[n+]1[O-] [2-Methylpyridine 1-oxide]	> 90	
CC(Cl)(Cl)[N+](=O)[O-] [1,1-Dichloro-1-nitroethane]		CC50 at 24 h (AC50 (uM) modified / 1000, Tox21_110001=Tox21_201178, viability, 1 nM T3 present, 24 h): > 90 µM
Fc1ccc([C@@]2(Cn3cncn3)O[C@@H]2c2ccccc2Cl)cc1 (racemic) [Epoxiconazole]	> 90	
COc1ccc(Cc2nccc3cc(OC)c(OC)cc23)cc1OC [Papaverine hydrochloride]	> 20	
COCc1cnc(C2=NC(C)(C(C)C)C(=O)N2)c(C(=O)O)c1 (stereo not drawn) [Imazamox]	> 90	
Cc1nnc(C(C)C)n1[C@@H]1C[C@H]2CC[C@@H](C1)N2CC[C@H](NC(=O)C1CCC(F)(F)CC1)c1ccccc1 [Maraviroc]	> 50	
NC(=O)CC[C@H](Nc1ccc([N+](=O)[O-])cc1)C(=O)O [N2-(4-Nitrophenyl)-L-glutamine hydrochloride]	> 90	
CN1CCN(C2=Nc3ccccc3Sc3ccc(Cl)cc32)CC1 [Clothiapine]	15.2	
CCNc1nc(NC(C)C(C)C)nc(SC)n1 (stereo not drawn) [Dimethametryn]	> 90	
CN[C@@H]1[C@@H](O)[C@@H](O[C@@H]2[C@H](O)[C@H](O[C@H]3OC(CN)=CC[C@H]3N)[C@@H](N)C[C@H]2N)OC[C@]1(C)O [Pentisomicin]	> 50	
CCCCCCCCC1CCC(=O)O1 (stereo not drawn) [gamma-Dodecalactone]	> 90	
CCCCOc1ccc(C(=O)CCN2CCCCC2)cc1 [Dyclonine hydrochloride]	4.72	
O=C(CCC1CCN(Cc2ccccc2)CC1)c1ccc2c(c1)NCCCC2 [Zanapezil fumerate]	> 50	
Cc1ccnc2c1NC(=O)c1cccnc1N2C1CC1 [Nevirapine]	> 90	
C[N+]1(CC2COC(c3ccccc3)(C3CCCCC3)O2)CCCCC1 (stereo not drawn) [Oxapium iodide]	> 50	
